Earlier results as cited in patent US9278997B2, “Processes for the manufacture of macrocyclic depsipeptides and new intermediates” (NOVARTIS AG, priority 2011, dated 2016).

Biological target: chymotrypsin (Bos taurus, UniProt P00766)
Settings: from J. Nat. Prod. 68(9), 1324-7 (2005); read-out: IC50 value for inhibition of chymotrypsin

In the case of “(S)-2-acetamido-N^1-((1S,2S,5S,8S,11R,12S,15S,18S,21R)-2-benzyl-21-hydroxy-5-(4-hydroxybenzyl)-15-isobutyl-8-isopropyl-4,11-dimethyl-3,6,9,13,16,22-hexaoxo-10-oxa-1,4,7,14,17-pentaazabicyclo[16.3.1]docosan-12-yl)pentanediamide [Nostopeptin BN920]”, the IC50 is listed as 31 nM.
